Measurements taken from patent US7423019B2, “Agent for inducing conversion of intestinal cells into insulin-producing cells and antidiabetic drug” (Ajinomoto Co., Inc., priority 2003, dated 2008).
Entries after “also recorded” stand apart in the source; their conditions may differ.

Legend:
[1] = tested on: pancreas, stomach, liver, and duodenal cells; test: Primary culture of embryonal mouse pancreas, stomach, liver and duodenal cells, double stain with antibodies to insulin and glucagon; assay type: cell-based; settings: 10 nmol/l, cultured 8 days
Protocol: (§1) Cells originating from various kinds of tissues of a 17.5 day-old embryonal mouse were divided into a group added with GLP-1(1-37) (10 nmol/l) or GLP-1(7-37) (10 nmol/l) and a non-addition control group, and were then cultured. After the cells had been cultured for 8 days, a double stain was performed using antibodies to insulin and glucagon. Specifically, the process was performed as follows.
(§2) Specimens of pancreas, liver, stomach, duodenum, and small intestine (including the jejunum, ileum, and colon) tissues were collected from a 17.5 day-old C57BL/6 embryonal mouse under a microscope. Then, those tissues were immersed in a Hanks solution (Hanks Balanced Solution, Gibco BRL, Co., Ltd., without containing Ca) containing 5 mM of CaCl2 (pH 7.4) and 0.1% of collagenase, and were then incubated at 37° C. for 10 to 20 minutes, followed by gently pipetting for digestion, respectively.
The obtained cells were washed with a culture medium and then inoculated in a 6-well plate for tissue culture at a cell density of 5×10^4 cells/cm^2. After 24 hours from the start of the culture, GLP-1(1-37) or GLP-1(7-37) was added to the culture. […]

[2] = tested on: intestinal cells; test: Primary culture of embryonal mouse intestinal cells, double stain with antibodies to insulin and glucagon; assay type: cell-based; settings: 10 nmol/l, cultured 8 days; for generation of insulin-positive cells in intestinal cells: 17.5 day-old embryonal mouse cells
Protocol: as §1, §2
The obtained cells were washed with a culture medium and then inoculated in a 6-well plate for tissue culture at a cell density of 5×10^4 cells/cm^2. After 24 hours from the start of the culture, GLP-1(1-37) or GLP-1(7-37) was added to the culture. Furthermore, after the cells had been continuously cultured for 8 days, the cells were washed three times with phosphate buffer (hereinafter, referred to as “PBS”) and then fixed by immersing in a 4% paraformaldehyde-phosphate buffer for 5 minutes and a 25% acetone/methanol solution for 1 minute. It should be noted that GLP-1(1-37) and GLP-1(7-37) were purchased from SIGMA.
Subsequently, each well was washed with 0.05% Tween 20/PBS, followed by immersing in 0.2% Triton X100 for 1 hour. After that, anti-insulin goat antibody (Santa Cruz) and anti-glucagon mouse antibody (Sigma) were added to each well, and the whole was incubated at 4° C. for 16 hours, followed by washing the well. Then, Alexa 488-binding anti-goat IgG donkey antibody (Molecular Probes) or Cy3-binding anti-mouse IgG donkey antibody (Jackson Immuno Research Laboratories Inc.) was added to each well, and the whole was then incubated at 4° C. for 4 hours. […]

[3] = tested on: GLP-1R; test: Experiment of inhibiting GLP-1 function with exendin (9-39), RT-PCR in jejunal cells; assay type: cell-based, mouse; settings: 8 days
Protocol: Jejunal cells were cultured by the same way as that of paragraph <1>, except that 0, 10, 100, or 1,000 nmol/l of exendin (9-39), which was a GLP-1R antagonist, was simultaneously added together with GLP-1(1-37) (10 nmol/l). Then, the expression amounts of the insulin gene and other various kinds of genes were analyzed (a culture period of 8 days).

[4] = background art; cited from earlier work
[5] = tested on: diabetes model mouse; test: Transplanting cultured jejunum into STZ diabetes model mouse, blood sugar level; assay type: in vivo
Protocol: (§3) The jejunum collected from a 14.5-day embryonal mouse was embedded in type I collagen gel (Nitta Gelatin Inc.) and was then grown in organ culture in the presence of 50 nM GLP-1(1-37) and 50 nM PDGF (Platelet Derived Growth Factor). The amount of insulin in the culture medium was determined using a mouse insulin-detecting kit (Shibayagi) according to the attached protocol.
The jejunum at the second day from the start of the organ culture was transplanted in the abdominal cavity of a diabetes model mouse. The mouse was changed to a type I diabetes model by the administration of 200 mg/kg streptozotocin (hereinafter, referred to as “STZ”) three days before the transplantation, and the blood sugar level of the mouse was 300 to 350 mg/dl. Similarly, jejunal cells cultured in the absence of GLP-1 (1-37) were transplanted into a diabetes model mouse.

[6] = tested on: cultured intestinal cells; test: RT-PCR gene expression in organ culture of jejunum, concentration-dependent effects; assay type: cell-based, mouse; settings: 8 days
Protocol: Using a quantitative PCR method, the effects of GLP-1(1-37) on the cultured intestinal cells were analyzed in detail as described below.
Four concentrations of GLP-1(1-37), 0, 5, 10, and 50 nmol/l, were prepared and the organ culture of jejunum was performed by the same way as that of Example 3. After the jejunum had been cultured for 8 days, analyzed using the RT-PCR were the expression amounts of insulin genes (preproinsulin I and preproinsulin II), transcription factor group [neurogenin 3 (ngn3), neuroD/BETA 2, pax-4, Nkx 6.1, and hepatocyte nuclear factor 6 (HNF-6)] that controls the differentiation of secretory cells in the pancreas, a GLP-1 receptor (GLP-1 R), preproglucagon, pancreas duodenal homobox 1 (pdx-1), and hypoxanthine phosphoribosyl transferase (HPRT) as a positive control.
The RT-PCR was performed according to the method described in the literature (Hepatology, 32: 1230-1239) using primers. The primers used herein were as follows.
GLP-1R (SEQ ID NOS: 3 and 4), preproinsulin 1 (SEQ ID NOS: 5 and 6), preproinsulin II (SEQ ID NOS: 7 and 8), preproglucagon (SEQ ID NOS: 9 and 10), pdx-1 (SEQ ID NOS: 11 and 12), ngn3 (SEQ ID NOS: 13 and 14), neuroD (SEQ ID NOS: 15 and 16), pax-4 (SEQ ID NOS: 17 and 18), Nkx 6.1 (SEQ ID NOS: 19 and 20), HNF-6 (SEQ ID NOS: 21 and 22), and HPRT (SEQ ID NOS: 23 and 24).

[7] = tested on: jejunal cells; test: Comparison between GLP-1 and other growth factors, RT-PCR in jejunal cells; assay type: cell-based, mouse; settings: GLP-1(1-37) 10 nm/l with activin A, beta cellulin, HGF, EGF; 8 days
Protocol: In the presence or absence of GLP-1(1-37) (10 nm/l), jejunal cells were cultured by the same way as that of paragraph <1>, except that activin A, beta cellulin, hepatocyte growth factor (HGF), and epidermal growth factor (EGF), which had been reported to control the growth and differentiation of secretory cells in the pancreas, were added. Then, the expression amounts of various kinds of genes were analyzed (a culture period of 8 days).

[8] = tested on: jejunum; test: Organ culture of embryonal mouse jejunum, insulin in the culture medium; assay type: cell-based; settings: 50 nM GLP-1(1-37) with 50 nM PDGF, jejunum of 14.5-day embryonal mouse in collagen gel
Protocol: as §3

[9] = tested on: intestinal epithelium cells; test: In vivo GLP-1(1-37) administration to pregnant mouse, insulin/glucagon immunostain of newborn intestine sections; settings: 10 nmol i.p. to pregnant mouse daily, embryonal day 10.5 to 17.5
Protocol: GLP-1(1-37) (10 nmol) was intraperitoneally injected to a pregnant mouse at the same time every day over a seven-day embryonal period from day 10.5 to 17.5. After birth, tissue sections from the small and large intestine of a newborn mouse were double-stained using antibodies to insulin and glucagon. Specifically, the double stain was performed as follows.
Each tissue of the small intestine (including jejunum and ileum) and the large intestine was immersed overnight in a 4% paraformaldehyde-phosphate buffer at 4° C., followed by embedding in O.C.T. compound to prepare section samples. The section samples were dried and fixed with acetone. Subsequently, the section samples were dried overnight at −20° C. and then washed with PBS-Tween 20, followed by immersing in 0.2% Triton X100 for 1 hour. After that, using anti-insulin goat antibody (Santa Cruz) or anti-glucagon mouse antibody (Sigma), and Alexa 488-binding anti-goat IgG donkey antibody or Cy3-binding anti-mouse IgG donkey antibody, the immunostain of insulin and glucagon was carried out, respectively.

[10] = tested on: preproinsulin I and preproinsulin II mRNA; test: Insulin gene expression in organs of GLP-1(1-37)-administered STZ diabetes model rat (RT-PCR); assay type: in vivo; settings: 80 μg/head i.p. once a day for ten days, 42nd day
Protocol: GLP-1(1-37) was confirmed to have the blood sugar decrease effect, so that the presence or absence of insulin production in the intestine of the GLP-1(1-37) administered group was determined by the method described below. GLP-1(1-37)(80 μg/head) or PBS was intraperitoneally administered to each of 6 Wistar male rats once a day over a ten-day […] period from day 2 to 12. On the 7th day of the administration (9-day old), 75 mg/kg of STZ was subcutaneously administered to induce diabetes. In order to prepare normal controls, some PBS-administered rats were administered citrate buffer instead of STZ. Subsequently, the rats were allowed to ingest feed and water freely. On the 42nd day, autopsy was performed to collect the pancreas, stomach, intestine, and lung. After RNA was prepared from each organ using ISOGEN (NIPPONGENE), mRNA of preproinsulin I and mRNA of preproinsulin II were quantified by the RT-PCR method. Oligonuculeotides shown in SEQ ID NOS: 24 and 25 were used for preproinsulin I, and oligonuculeotides shown in SEQ ID NOS: 26 and […] were used for preproinsulin II as PCR primers.

[11] = tested on: STZ diabetes model rat; test: Blood sugar decrease effect on STZ diabetes model rat; assay type: in vivo
Protocol: GLP-1 (1-37) (80 μg/head) or PBS was intraperitoneally administered to a Wistar male rat once a day over a ten-day period from day 2-12 after birth. On the 7th day of the administration (9-day old), 75 mg/kg of STZ was subcutaneously administered to induce diabetes. In order to prepare normal controls, some PBS-administered rats were administered citrate buffer instead of STZ. Subsequently, the rats were allowed to ingest feed and water freely. In the 42nd day, blood of each rat was drawn from the tail vein and the blood sugar level was measured. The measurement of the blood sugar level was performed using the whole blood sample by the glucose oxidase method in accordance with a general method.

[12] = STZ mouse transplanted with jejunal cells treated with GLP-1(1-37), baseline 300 to 350 mg/dl

## GLP-1(7-37) (HAEGTFTSDVSSYLEGQAAKEFIAWLVKGRG; Glucagon-like peptide 1; UniProt P01275 98-128, looked up, fragment) [reference compound]
[1]
  number of insulin-positive cells and glucagon-positive cells versus non-addition group: no difference
[2]
  generation of insulin-positive cells in intestinal cells: can not effect on the induction

## exendin (9-39)
[3]; exendin (9-39) 10, 100 or 1,000 nmol/l added together with GLP-1(1-37) 10 nmol/l
  expression of preproinsulin I, preproinsulin II, and ngn3: hardly observed
[3]; exendin (9-39) added together with GLP-1(1-37) 10 nmol/l
  expression of preproglucagon and pdx-1: not influenced

## GLP-1(1-37): 37-amino acid peptide having the amino acid sequence from position 92 to position 128 of a preproglucagon peptide; purchased from SIGMA (HDEFERHAEGTFTSDVSSYLEGQAAKEFIAWLVKGRG; Glucagon-like peptide 1; UniProt P01275 92-128, looked up, fragment)
[4]
  activity as incretin: weak activity
[5]; STZ mouse (300 to 350 mg/dl) transplanted with jejunal cells treated with GLP-1(1-37)
  change of blood sugar level after transplantation: decrease in blood sugar level was observed
[5]; [12]
  blood sugar level after eight weeks from the transplantation: 75 to 100 mg/dL
  blood sugar level after four weeks from the transplantation: 125 to 225 mg/dL
[6]; 0, 5, 10, 50 nmol/l
  expression of GLP-1R, preproglucagon and pdx-1 versus non addition group: no change in expression
  expression of transcription factor group controlling differentiation of secretory cells in the pancreas: increase in expression
[6]; 5 nmol/l, FIG. 1
  expression of the insulin gene (preproinsulin I, preproinsulin II): expression of the insulin gene was observed
[1]
  number of insulin-positive cells and glucagon-positive cells versus non-addition group: no difference
[7]
  expression of preproglucagon and pdx-1: no change
  expression of preproinsulin I, preproinsulin II, and ngn3: high expression
[8]
  insulin secretion into the culture medium: insulin secretion was observed
[9]
  insulin-positive intestinal epithelium cells in small and large intestine of newborn mouse: many insulin-positive intestinal epithelium cells were observed
  number of insulin positive cells, small intestine compared with large intestine: higher
[10]
  expression of preproinsulin genes in the pancreas, stomach, and lung: no expression was observed
  expressions of preproinsulin I gene and preproinsulin II gene in the intestine: significantly increased
[2]
  glucagon staining of the insulin-positive cells: strongly glucagon-positive
  generation of insulin-positive cells in intestinal cells: insulin-positive cells were only observed; also recorded: effects on the induction
[11]; 80 μg/head i.p. once a day for ten days, 42nd day
  blood sugar level compared to diabetes control group: decreased significantly
[11]; 80 μg/head i.p. once a day, day 2-12 after birth, STZ 75 mg/kg s.c., measured 42nd day, n = 6
  blood sugar level: 430 ± 89 ^##
